Measurements from patent publication US6451820B1, “Substituted 1-(4-aminophenly)triazoles and their use as anti-inflammatory agents” (Boehringer Ingelheim Pharmaceuticals, Inc., priority 2000, dated 2002).
Like-named read-outs stand apart in the source and are kept apart here.

Tested on: IL-2 promoter/enhancer
Assay: IL-2 promoter assay (luciferase reporter in J.1F/C6 Jurkat cells)
Type: cell-based
Conditions: Homo sapiens
Text: The IL-2 promoter assay measures transcriptional activation of a luciferase reporter gene which has been placed under control of the IL-2 promoter/enhancer. All the known regulatory features of the IL-2 gene are contained within a ˜300 bp sequence immediately upstream of the open reading frame. The region −328 to +35 relative to the transcription start site of the IL-2 gene is obtained by […] of human genomic DNA and is subcloned into the promoterless luciferase reporter vector pGL2-Basic (Promega). The resulting construct, pIL2P-luc, and a vector containing a neomycin resistance gene, pcDNA/Neo (Invitrogen), are linearized and stably transfected into Jurkat cells (a human T cell line) by electroporation.
For screening compounds, the cells are pelleted by centrifugation, washed once with PBS, resuspended in RPMI (phenol red-free) containing 5% FBS, and dispensed into 96-well, white microtiter plates (Packard) at 50,000 cells/well. The cells are pre-incubated with compounds (1 μg/ml) for 15 min prior to addition of ionomycin (1 μg/ml) and PMA (10 ng/ml) in a final volume of 100 μl. Following a 5 hr incubation at 37° C. in a humidified incubator, 100 μl of Luc-Lite lysis buffer/luciferase assay buffer (Promega) is added and luminescence measured using a Packard TopCount scintillation counter/luminometer.

[1] = J.1F/C6 Jurkat cells stimulated with ionomycin and PMA, luciferase reporter, read-out: IC50

Row | IC50 (J.1F/C6 Jurkat cells treated with ionomycin and PMA, cell line validation, read-out: IC50, inhibition of luciferase activity) | IC50 [1] | SMILES
1 | 0.0003 µM | – | C=CC[C@@H]1/C=C(\C)C[C@H](C)C[C@H](OC)[C@H]2O[C@@](O)(C(=O)C(=O)N3CCCC[C@H]3C(=O)O[C@H](/C(C)=C/[C@@H]3CC[C@@H](O)[C@H](OC)C3)[C@H](C)[C@@H](O)CC1=O)[C@H](C)C[C@@H]2OC [FK506, reference compound]
2 | – | < 10 µM | CSc1nc(-c2ccncc2)nn1-c1ccc(NC(=O)c2cccnc2)cc1 [Example 1]
3 | – | < 10 µM | CSc1nc(-c2ccncc2)nn1-c1ccc(NCc2sccc2C)cc1 [Example 2, (3-Methylthien-2-ylmethyl)-[4-(5-methylthio-3-pyridin-4-yl-1H-1,2,4-triazol-1-yl)phenyl]amine]
